Results reported in patent US20240116921A1, “LACTAM (HETERO)[…] DERIVATIVES AS INHIBITORS OF ERBB2” (EnLiven Therapeutics, Inc., priority 2020, published 2024).
Structures can show the parent of a compound that is named as a salt.

Legend:
[1] = biological target: Ba/F3 ERBB2 A775_G776insYVMA (Homo sapiens, UniProt P04626, DUP772-775, cells depend on it); test: Cell viability assay, Ba/F3 ERBB2 A775_G776insYVMA; format: cell-based, mouse; details: Ba/F3 ERBB2 YVMA cells, cell viability, 72 hours, CellTiter Glo; Table B5; read-out: Ba/F3 ERBB2 YVMA, IC50
How it was run: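 IL-3-independent Ba/F3 lines stably expressing the human ERBB2 insertion mutants were seeded at 3000 cells/well and exposed to compounds for 72 h at 37 °C, 5% CO2. Viability was read as ATP by CellTiter-Glo luminescence. Curves were fitted by sigmoidal nonlinear regression.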

[2] = biological target: T1, phosphorylated ERBB2 (pERBB2) (Homo sapiens, UniProt P04626); test: Detection of phosphorylated ERBB2 (pERBB2) by ELISA in BT-474 cells; format: cell-based; details: four hours incubation
T1 construct: endogenous in cells; host or cells: BT-474
How it was run: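 BT-474 cells (2.0×10^4/well) treated 4 h at 37 °C, 5% CO2 with compounds in four-fold dilutions from 10 µM to 0.01 nM. Lysate pERBB2 measured by ELISA with TMB read at 450 nm; % relative activity scaled between no-cell wells and 0.1% DMSO-treated cells.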

[3] = biological target: T2, phosphorylated EGFR (pEGFR) (Homo sapiens, UniProt P00533); test: Detection of phosphorylated EGFR (pEGFR) in EGF-stimulated A431 cells; format: cell-based; details: A431 cells (10% FBS), 4 hours incubation, EGF 30 ng/mL 10 minutes, AlphaLISA
T2 construct: performed to measure phosphorylated EGFR levels using A431 cells (10% FBS); endogenous in cells; host or cells: A431
How it was run: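 A431 cells in 10% FBS were preincubated with compound for 4 h at 37 °C, then stimulated with EGF (30 ng/mL final) for 10 min. pEGFR in lysates was read by AlphaLISA. % inhibition was calculated against DMSO and staurosporine-treated controls, and IC50 came from a four-parameter curve fit.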

T1 sequence (P04626 23-1255): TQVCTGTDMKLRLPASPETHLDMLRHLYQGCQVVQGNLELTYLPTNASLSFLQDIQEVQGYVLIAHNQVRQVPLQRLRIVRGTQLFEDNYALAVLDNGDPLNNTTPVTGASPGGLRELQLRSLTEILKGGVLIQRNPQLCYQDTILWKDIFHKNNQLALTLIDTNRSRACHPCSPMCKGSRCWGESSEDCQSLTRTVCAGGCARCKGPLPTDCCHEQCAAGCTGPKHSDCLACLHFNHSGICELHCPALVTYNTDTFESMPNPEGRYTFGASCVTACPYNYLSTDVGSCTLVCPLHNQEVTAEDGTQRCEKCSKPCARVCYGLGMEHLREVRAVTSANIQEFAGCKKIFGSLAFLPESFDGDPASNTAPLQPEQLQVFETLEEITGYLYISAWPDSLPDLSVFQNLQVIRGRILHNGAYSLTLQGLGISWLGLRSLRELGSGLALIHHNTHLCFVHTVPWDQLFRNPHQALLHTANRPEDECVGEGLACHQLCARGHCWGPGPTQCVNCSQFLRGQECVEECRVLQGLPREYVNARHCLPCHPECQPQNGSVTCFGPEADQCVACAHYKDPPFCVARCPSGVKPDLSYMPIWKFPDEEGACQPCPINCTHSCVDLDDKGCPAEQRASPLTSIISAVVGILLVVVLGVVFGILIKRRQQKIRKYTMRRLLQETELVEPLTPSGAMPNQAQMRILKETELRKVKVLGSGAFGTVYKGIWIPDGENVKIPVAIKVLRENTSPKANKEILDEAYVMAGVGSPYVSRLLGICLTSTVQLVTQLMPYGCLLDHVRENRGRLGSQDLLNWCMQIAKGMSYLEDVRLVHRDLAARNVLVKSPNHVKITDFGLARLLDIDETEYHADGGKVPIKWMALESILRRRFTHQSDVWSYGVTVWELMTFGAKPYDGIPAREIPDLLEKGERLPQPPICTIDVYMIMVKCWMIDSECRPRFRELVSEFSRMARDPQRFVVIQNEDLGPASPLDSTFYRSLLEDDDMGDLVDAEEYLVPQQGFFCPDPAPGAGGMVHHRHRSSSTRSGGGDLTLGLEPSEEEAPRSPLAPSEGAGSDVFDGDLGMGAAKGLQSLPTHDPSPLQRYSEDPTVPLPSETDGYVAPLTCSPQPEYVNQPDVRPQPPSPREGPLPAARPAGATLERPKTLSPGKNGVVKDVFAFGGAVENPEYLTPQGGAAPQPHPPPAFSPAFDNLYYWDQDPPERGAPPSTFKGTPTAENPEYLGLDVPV
T2 sequence (P00533 25-1210): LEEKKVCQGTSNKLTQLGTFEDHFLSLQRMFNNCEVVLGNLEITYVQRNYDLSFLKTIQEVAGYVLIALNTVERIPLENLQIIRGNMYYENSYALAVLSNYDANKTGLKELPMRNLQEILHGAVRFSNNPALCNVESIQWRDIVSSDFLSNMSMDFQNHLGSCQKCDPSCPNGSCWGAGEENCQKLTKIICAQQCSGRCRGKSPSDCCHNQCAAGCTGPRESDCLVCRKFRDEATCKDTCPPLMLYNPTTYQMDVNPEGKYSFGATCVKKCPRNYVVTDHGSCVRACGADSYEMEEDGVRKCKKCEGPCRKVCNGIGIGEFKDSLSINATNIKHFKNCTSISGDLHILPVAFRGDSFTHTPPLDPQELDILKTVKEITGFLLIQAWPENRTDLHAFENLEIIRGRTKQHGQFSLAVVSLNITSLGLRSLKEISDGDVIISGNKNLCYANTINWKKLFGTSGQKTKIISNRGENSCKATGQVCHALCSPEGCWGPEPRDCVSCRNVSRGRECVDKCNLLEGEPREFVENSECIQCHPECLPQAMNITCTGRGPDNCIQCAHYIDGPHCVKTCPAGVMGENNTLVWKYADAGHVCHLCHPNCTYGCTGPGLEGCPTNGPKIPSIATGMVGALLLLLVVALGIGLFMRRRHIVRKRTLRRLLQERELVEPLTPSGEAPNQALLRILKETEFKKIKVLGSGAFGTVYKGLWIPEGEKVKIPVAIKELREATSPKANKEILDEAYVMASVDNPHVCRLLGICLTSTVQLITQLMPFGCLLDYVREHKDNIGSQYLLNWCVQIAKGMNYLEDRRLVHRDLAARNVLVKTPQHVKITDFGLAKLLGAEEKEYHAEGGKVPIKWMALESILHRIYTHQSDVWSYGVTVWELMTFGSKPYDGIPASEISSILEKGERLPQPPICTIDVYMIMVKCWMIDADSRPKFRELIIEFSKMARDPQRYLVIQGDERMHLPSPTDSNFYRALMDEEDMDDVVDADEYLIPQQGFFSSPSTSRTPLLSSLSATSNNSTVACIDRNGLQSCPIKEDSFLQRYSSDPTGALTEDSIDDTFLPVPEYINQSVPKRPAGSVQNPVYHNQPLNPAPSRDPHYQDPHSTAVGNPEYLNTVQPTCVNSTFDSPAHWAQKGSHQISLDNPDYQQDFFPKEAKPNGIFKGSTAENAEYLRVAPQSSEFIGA
Sequence of Ba/F3 ERBB2 A775_G776insYVMA (P04626 with tags, fused parts or gaps DUP772-775): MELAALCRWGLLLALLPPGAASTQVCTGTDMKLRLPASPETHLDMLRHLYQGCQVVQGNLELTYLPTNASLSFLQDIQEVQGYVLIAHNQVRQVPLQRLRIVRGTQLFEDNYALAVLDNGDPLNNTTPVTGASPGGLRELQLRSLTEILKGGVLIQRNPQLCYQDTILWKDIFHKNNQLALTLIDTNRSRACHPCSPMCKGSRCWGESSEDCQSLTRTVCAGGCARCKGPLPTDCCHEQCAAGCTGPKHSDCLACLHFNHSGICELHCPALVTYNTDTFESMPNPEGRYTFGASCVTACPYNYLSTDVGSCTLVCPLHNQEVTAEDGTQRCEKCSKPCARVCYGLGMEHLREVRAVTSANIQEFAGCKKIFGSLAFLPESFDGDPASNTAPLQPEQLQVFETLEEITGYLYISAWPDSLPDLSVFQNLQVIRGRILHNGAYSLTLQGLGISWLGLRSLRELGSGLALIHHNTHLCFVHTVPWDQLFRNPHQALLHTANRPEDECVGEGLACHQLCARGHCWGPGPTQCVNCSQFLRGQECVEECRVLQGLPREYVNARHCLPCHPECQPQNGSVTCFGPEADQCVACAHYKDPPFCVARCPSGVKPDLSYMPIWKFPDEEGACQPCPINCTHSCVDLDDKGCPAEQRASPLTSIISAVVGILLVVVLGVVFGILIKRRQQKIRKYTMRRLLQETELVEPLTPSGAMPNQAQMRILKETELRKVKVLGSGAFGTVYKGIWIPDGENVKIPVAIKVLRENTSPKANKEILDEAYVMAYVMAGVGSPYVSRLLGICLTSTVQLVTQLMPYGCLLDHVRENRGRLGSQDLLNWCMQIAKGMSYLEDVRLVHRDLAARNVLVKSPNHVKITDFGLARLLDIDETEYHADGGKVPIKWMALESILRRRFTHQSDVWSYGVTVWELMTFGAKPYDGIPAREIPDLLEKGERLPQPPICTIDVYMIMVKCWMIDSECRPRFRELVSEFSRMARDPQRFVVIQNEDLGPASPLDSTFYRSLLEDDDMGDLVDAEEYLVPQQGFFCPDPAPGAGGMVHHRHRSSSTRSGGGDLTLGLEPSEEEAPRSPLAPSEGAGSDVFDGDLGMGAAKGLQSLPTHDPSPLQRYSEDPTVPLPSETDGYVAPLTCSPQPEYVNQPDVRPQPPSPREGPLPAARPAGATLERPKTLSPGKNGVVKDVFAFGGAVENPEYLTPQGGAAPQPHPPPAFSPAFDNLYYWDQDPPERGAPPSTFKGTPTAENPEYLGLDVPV

| SMILES | IC50 [2] | IC50 [3] | GI50 [1] |
| --- | --- | --- | --- |
| C=C1CCN(c2cc3c(Nc4ccc(Oc5ccn6ncnc6c5)c(C)c4)ncnc3cc2OCCN(C)C)C1=O [Compound 56, 1-{7-[2-(dimethylamino)ethoxy]-4-[(3-methyl-4-{[1,2,4]triazolo[1,5-a]pyridin-7-yloxy}phenyl)amino]quinazolin-6-yl}-3-methylidenepyrrolidin-2-one] | 6520 nM | > 10000 nM | > 500 nM |
| C=C1C(=O)N(c2ccc3ncnc(Nc4ccc(Oc5ccc6c(c5)ncn6C)c(C)c4)c3n2)C[C@H]1C [Compound 59, (4S)-4-methyl-1-[4-({3-methyl-4-[(1-methyl-1,3-benzodiazol-5-yl)oxy]phenyl}amino)pyrido[3,2-d]pyrimidin-6-yl]-3-methylidenepyrrolidin-2-one] | 60.7 nM | 710 nM | 13.4 nM |
| Cc1cc(Nc2ncnc3ccc(N4CC/C(=C\CN(C)C)C4=O)nc23)ccc1Oc1cccnc1 [Compound 62, (3E)-3-[2-(dimethylamino)ethylidene]-1-(4-{[3-methyl-4-(pyridin-3-yloxy)phenyl]amino}pyrido[3,2-d]pyrimidin-6-yl)pyrrolidin-2-one] | 23.9 nM | 212 nM | 4.36 nM |
| Cc1cc(Nc2ncnc3ccc(N4CC/C(=C\CN(C)C)C4=O)nc23)ccc1Oc1ccc2scnc2c1 [Compound 67, (E)-1-(4-((4-(benzo[d]thiazol-5-yloxy)-3-methylphenyl)amino)pyrido[3,2-d]pyrimidin-6-yl)-3-(2-(dimethylamino)ethylidene)pyrrolidin-2-one] | 44.2 nM | 53.2 nM | 1.82 nM |
| Cc1cc(Nc2ncnc3ccc(N4CC/C(=C\CN(C)C)C4=O)nc23)ccc1Oc1ccc2c(c1)nnn2C [Compound 68, (3E)-3-[2-(dimethylamino)ethylidene]-1-[4-({3-methyl-4-[(1-methyl-1,2,3-benzotriazol-5-yl)oxy]phenyl}amino)pyrido[3,2-d]pyrimidin-6-yl]pyrrolidin-2-one] | 30.5 nM | 973 nM | 3.81 nM |
| Cc1c(Oc2ccc3c(c2)ncn3C)ccc(Nc2ncnc3ccc(N4CC/C(=C\CN(C)C)C4=O)nc23)c1F [Compound 69, (3E)-3-[2-(dimethylamino)ethylidene]-1-[4-({2-fluoro-3-methyl-4-[(1-methyl-1,3-benzodiazol-5-yl)oxy]phenyl}amino)pyrido[3,2-d]pyrimidin-6-yl]pyrrolidin-2-one] | 56.4 nM | > 10000 nM | 3.57 nM |
| Cc1cc(Nc2ncnc3cnc(N4CC/C(=C\CN(C)C)C4=O)cc23)ccc1Oc1ccn2ncnc2c1 [Compound 74, (3E)-3-[2-(dimethylamino)ethylidene]-1-{4-[(3-methyl-4-{[1,2,4]triazolo[1,5-a]pyridin-7-yloxy}phenyl)amino]pyrido[3,4-d]pyrimidin-6-yl}pyrrolidin-2-one] | 5.43 nM | 2970 nM | 5.17 nM |
| Cc1ccc(Oc2ccc(Nc3ncnc4cnc(N5CC/C(=C\CN(C)C)C5=O)cc34)cc2C)cn1 [Compound 75, (3E)-3-[2-(dimethylamino)ethylidene]-1-[4-({3-methyl-4-[(6-methylpyridin-3-yl)oxy]phenyl}amino)pyrido[3,4-d]pyrimidin-6-yl]pyrrolidin-2-one] | 20.4 nM | 697 nM | 10.4 nM |

The next lines start with results.

| IC50 [2] | IC50 [3] | SMILES | GI50 [1] |
| --- | --- | --- | --- |
| 23.1 nM | 250 nM | Cc1cc(Nc2ncnc3ccc(N4CC/C(=C\CN(C)C)C4=O)nc23)ccc1Oc1ccn(C(F)F)c(=O)c1 [Compound 55, 1-(difluoromethyl)-4-[4-({6-[(3E)-3-[2-(dimethylamino)ethylidene]-2-oxopyrrolidin-1-yl]pyrido[3,2-d]pyrimidin-4-yl}amino)-2-methylphenoxy]pyridin-2-one] | 23 nM |
| 12 nM | 3040 nM | Cc1cc(Nc2ncnc3cnc(N4CC/C(=C\CCN(C)C)C4=O)cc23)ccc1Oc1ccn2ncnc2c1 [Compound 60, (E)-1-(4-(4-([1,2,4]triazolo[1,5-a]pyridin-7-yloxy)-3-methylphenylamino)pyrido[3,4-d]pyrimidin-6-yl)-3-(3-(dimethylamino)propylidene)pyrrolidin-2-one formate] | 22.5 nM |
| 132 nM | 1010 nM | Cc1cc(Nc2ncnc3ccc(N4CC/C(=C\CN(C)C)C4=O)nc23)ccc1Oc1ccc2nccnc2c1 [Compound 61, (E)-3-(2-(dimethylamino)ethylidene)-1-(4-(3-methyl-4-(quinoxalin-6-yloxy)phenylamino)pyrido[3,2-d]pyrimidin-6-yl)pyrrolidin-2-one] | 7.15 nM |
| 128 nM | > 10000 nM | CCn1cnc2cc(Oc3ccc(Nc4ncnc5ccc(N6CC/C(=C\CN(C)C)C6=O)nc45)cc3C)ccc21 [Compound 65, (3E)-3-[2-(dimethylamino)ethylidene]-1-[4-({4-[(1-ethyl-1,3-benzodiazol-5-yl)oxy]-3-methylphenyl}amino)pyrido[3,2-d]pyrimidin-6-yl]pyrrolidin-2-one] | 36.4 nM |
| 34.2 nM | 93.6 nM | Cc1cc(Nc2ncnc3ccc(N4CC/C(=C\CN(C)C)C4=O)nc23)ccc1Oc1ccc2ocnc2c1 [Compound 66, (E)-1-(4-((4-(benzo[d]oxazol-5-yloxy)-3-methylphenyl)amino)pyrido[3,2-d]pyrimidin-6-yl)-3-(2-(dimethylamino)ethylidene)pyrrolidin-2-one] | 1.95 nM |
| 34.4 nM | 1990 nM | Cc1cc(Nc2ncnc3ccc(N4CC/C(=C\CN(C)C)C4=O)nc23)c(F)cc1Oc1ccc2c(c1)ncn2C [Compound 70, (3E)-3-[2-(dimethylamino)ethylidene]-1-[4-({2-fluoro-5-methyl-4-[(1-methyl-1,3-benzodiazol-5-yl)oxy]phenyl}amino)pyrido[3,2-d]pyrimidin-6-yl]pyrrolidin-2-one] | 4.29 nM |
| 25.7 nM | 273 nM | Cc1cc(Nc2ncnc3ccc(N4CC/C(=C\CN(C)C)C4=O)nc23)ccc1Oc1ccn2ccnc2c1 [Compound 71, (3E)-3-[2-(dimethylamino)ethylidene]-1-{4-[(4-{imidazo[1,2-a]pyridin-7-yloxy}-3-methylphenyl)amino]pyrido[3,2-d]pyrimidin-6-yl}pyrrolidin-2-one] | 2.56 nM |
| 44.9 nM | 1880 nM | CCc1ccc(Oc2ccc(Nc3ncnc4ccc(N5CC/C(=C\CN(C)C)C5=O)nc34)cc2C)cn1 [Compound 72, (E)-3-(2-(dimethylamino)ethylidene)-1-(4-((4-((6-ethylpyridin-3-yl)oxy)-3-methylphenyl)amino)pyrido[3,2-d]pyrimidin-6-yl)pyrrolidin-2-one] | 5.37 nM |
| 41.5 nM | 514 nM | CCc1ccc(Oc2ccc(Nc3ncnc4cnc(N5CC/C(=C\CN(C)C)C5=O)cc34)cc2C)cn1 [Compound 73, (E)-3-(2-(dimethylamino)ethylidene)-1-(4-((4-((6-ethylpyridin-3-yl)oxy)-3-methylphenyl)amino)pyrido[3,4-d]pyrimidin-6-yl)pyrrolidin-2-one] | 22 nM |
| > 10000 nM | > 10000 nM | Cc1cc(Nc2ncnc3cnc(N4CC/C(=C\CN(C)C)C4=O)cc23)c(F)cc1Oc1ccc2c(c1)ncn2C [Compound 76, (3E)-3-[2-(dimethylamino)ethylidene]-1-[4-({2-fluoro-5-methyl-4-[(1-methyl-1,3-benzodiazol-5-yl)oxy]phenyl}amino)pyrido[3,4-d]pyrimidin-6-yl]pyrrolidin-2-one] | > 500 nM |
